Laboratory results: patent publication US9757378B2, “Methods to modulate acute myeloid leukemia stem/progenitor cell expansion and/or differentiation” (UNIVERSITE DE MONTREAL, priority 2013, dated 2017)
Structures can show the parent of a compound that is named as a salt.

Legend:
[1] = test system: AhR target genes CYP1A1, CYP1B1 and AHRR; experiment: AhR target gene expression by q-RT-PCR in AML cells; assay type: cell-based, human; settings: SR1 500 nM; TCDD 0.1, 1, 10 nM; n=13 samples
From the text: RNA was isolated from primary AML samples using Trizol® reagent according to the manufacturer's instructions (Invitrogen/Life Technologies) and reverse transcribed into cDNA using MMLV reverse transcriptase and random primers. 2× Fast Master Mix® containing primers described below and probes from the Universal Probe Library® (Roche Diagnostics) were used for q-RT-PCR reactions which were amplified in 2-3 technical replicates on an ABI 7900HT Fast Real-Time® PCR System (Applied Biosystems/Life Technologies). Analysis was done with SDS 2.2.2 software (Applied Biosystems/Life Technologies) using the comparative delta CT method with GAPDH as reference gene. The following primers and probes were used: GAPDH: 5′-[…]-3′ (forward, SEQ ID NO:7), 5′-[…]-3′ (reverse, SEQ ID NO:8), probe 60, CYP1A1: 5′-[…]-3′ (forward, SEQ ID NO:9), 5′-[…]-3′ (reverse, SEQ ID NO:10), probe 59, CYP1B1: 5′-[…]-3′ (forward, SEQ ID NO:11), 5′-[…]-3′ (reverse, SEQ ID NO:12), probe 20, AHRR: 5′-[…]-3′ (forward, SEQ ID NO:13), 5′-[…]-3′ (reverse, SEQ ID NO:14), probe 72, AHR: 5′-[…]-3′ (forward, SEQ ID NO:15), 5′-[…]-3′ (reverse, SEQ ID NO:16), probe 33.

primary human AML cells [2] = experiment: Secondary screen: dose response, five serial dilutions (CD34/CD15 flow cytometry); assay type: cell-based; parameters: key to 2ndary screen criteria fulfilled: 0 = no; 1 = yes; settings: for % increase CD34+CD15− (%) 2ndary screen / % increase CD34+CD15− (cell counts) 2ndary screen: at optimal concentration, compared to DMSO; for 2ndary screen criteria fulfilled: ≧50% increase CD34+CD15− (%) and cell counts and ≧50% gated cells in at least one dose
Method: In the primary screen cells were plated in transparent 384-wellplates (Greiner, 781182) at a density of 5,000 cells in 50 μl final volume per well. Compounds were tested at 2 μM (commercial libraries) or 1 μg/ml (Medicinal Chemistry Facility, IRIC). […] For validation experiments AML cells were grown in 384-well plates with 3-8 replicates per condition.
Flow cytometry was performed on an LSR™ II cytometer equipped with an HTS-device (BD Bioscience, Primary and Secondary screens and in vitro validation experiments) or on a BD Canto™ II cytometer (BD Bioscience, Xenotransplantation and CellTrace Violet™ experiments). Cells were stained for 30 minutes at 4° C. protected from light if not otherwise indicated (CellTrace Violet™ staining). The following flow cytometry-antibodies were used: CD45 Pacific Blue (BioLegend 304029), CD33 PE (BD Bioscience 555450), CD34 APC (BD Bioscience 555824), CD3 FITC (BD Bioscience 555332), CD19 PE-Cy7 (BD Bioscience 557835), CD15 PE (BD Bioscience 555401), and anti-mouse CD45.1 APC-efluor 730 (eBioscience 47-0453-82). CD34 intensities in flow cytometry plots were set at high levels on day 0 to allow tracing of non-predictable decreases of intensities during 7 days in culture.

primary human AML cells [3] = experiment: Primary screen: differentiation of primary human AML cells in vitro (CD34/CD15, HTS flow cytometry); settings: for % increase CD34+ (%) / % increase CD34+ (cell counts) / % increase CD34+CD15− (cell counts): compared to DMSO; for % increase CD34+CD15− (%): compared to DMSO ((compound − DMSO)/DMSO*100); for percent gated cells (viability): 2 μM (commercial libraries) or 1 μg/ml (IRIC)
Method: AML cells were thawed in 37° C. water bath and 1:10 diluted in prewarmed Iscove's modified Dulbecco's medium (IMDM) containing 20% FBS and DNase 100 μg/ml. […] When compounds were added to the culture medium, final DMSO concentrations were 0.1% in all in vitro experiments and 0.01% when cultured cells were transplanted into NSG-mice.
Compounds were tested at 2 μM (commercial libraries) or 1 μg/ml (Medicinal Chemistry Facility, IRIC). […] For validation experiments AML cells were grown in 384-well plates with 3-8 replicates per condition.
Flow cytometry was performed on an LSR™ II cytometer equipped with an HTS-device (BD Bioscience, Primary and Secondary screens and in vitro validation experiments) or on a BD Canto™ II cytometer (BD Bioscience, Xenotransplantation and CellTrace Violet™ experiments). Cells were stained for 30 minutes at 4° C. protected from light if not otherwise indicated (CellTrace Violet™ staining). […] CD34 intensities in flow cytometry plots were set at high levels on day 0 to allow tracing of non-predictable decreases of intensities during 7 days in culture.

[4] = test system: primary human AML specimens; experiment: Validation: 7-day serum-free culture of diverse AML specimens (CD34+CD15− cells); assay type: cell-based; settings: 7-day culture
Method: The following flow cytometry-antibodies were used: […] Statistical analyses of all in vitro experiments were done using Graphpad Prism v 6.01. […] Normalized CD34^+CD15^- percentages (td7/t0) were analyzed by Wilcoxon matched pairs signed rank test. Bars and error bars represent means and standard deviations (SD), or standard errors of the mean (SEM), as specified. Extreme limiting dilution analysis software (Hu, […]: extreme limiting dilution analysis for comparing depleted and enriched populations in stem cell and other assays. Journal of immunological methods 347, 70-78 (2009); http://bioinf.wehi.edu.au/software/elda/) was used to estimate LSC frequencies with 95% confidence intervals. In cases where all mice were positive or negative, one-sided confidence intervals were calculated. Differences in LSC frequencies between culture conditions were analyzed by Chi-square test.

Compound	upregulation of AhR target genes AHRR and CYP1A1 upon 24 h in vitro culture [1]	% increase CD34+CD15− (%) 2ndary screen (primary human AML cells [2]) [%]	% increase CD34+CD15− (cell counts) 2ndary screen (primary human AML cells [2]) [%]	2ndary screen criteria fulfilled (primary human AML cells [2])	% increase CD34+ (%) (primary human AML cells [3])	% increase CD34+ (cell counts) (primary human AML cells [3]) [%]	% increase CD34+CD15− (cell counts) (primary human AML cells [3]) [%]	% increase CD34+CD15− (%) (primary human AML cells [3])	percent gated cells (viability) (primary human AML cells [3]) [%]	CD34+CD15− cell counts in secondary screenings (ranking) (primary human AML cells [2]; in words)	impact on CD34+CD15− cell numbers ([4]; vs DMSO, P<0.0001 paired t-test)	median CD34+CD15− percentage relative to uncultured cells ([4]; SR1 0.75-1 μM, C05 2 μM, DMSO 19% / 22%) [%]
Clc1cc2c(cc1Cl)Oc1cc(Cl)c(Cl)cc1O2 [TCDD, 2,3,7,8-Tetrachlorodibenzodioxin]	marginally further induced	–	–	–	–	–	–	–	–	–	–	–
O=C(Nc1ccc2c(c1)OCCO2)c1sc2ccccc2c1Cl [UM0045609, 3-chloro-N-(2,3-dihydro-1,4-benzodioxin-6-yl)-1-benzithiophene-2-carboxamide]	–	204.83	198.60	1	46.63	56.89	109.14	94.85	–	–	–	–
COc1cccc2oc(-c3ccccc3)cc(=O)c12 [UM0113898, 5-Methoxyflavone]	–	105.80	119.91	1	36.28	20.92	61.47	82.42	–	–	–	–
N[C@@H]1C[C@H]1c1ccccc1 [UM0118428, Tranylcypromine hydrochloride]	–	–	–	0	49.50	−11.95	−10.11	52.70	77.80	–	–	–
O=c1cc(-c2ccccc2)oc2cc(O)cc(O)c12 [UM0118950, Chrysin]	–	194.69	172.16	1	47.05	48.57	108.30	105.68	–	–	–	–
O=c1c(O)c(-c2ccc(O)cc2)oc2cc(O)cc(O)c12 [UM0118952, Kaempferol]	–	–	–	0	26.34	−2.29	44.57	87.18	78.90	–	–	–
CCCCCCC(=O)CCCCCC/C=C/C[C@@H](O)[C@H](O)[C@@](N)(CO)C(=O)O [UM0119199, Myriocin]	–	–	–	0	1.19	−36.05	9.44	72.63	79.90	–	–	–
CO[C@H]1C[C@@H]2CC[C@@H](C)[C@@](O)(O2)C(=O)C(=O)N2CCCC[C@H]2C(=O)O[C@H]([C@H](C)C[C@@H]2CC[C@@H](O)[C@H](OC)C2)CC(=O)[C@H](C)/C=C(\C)[C@@H](O)[C@@H](OC)C(=O)[C@H](C)C[C@H](C)/C=C/C=C/C=C/1C [UM0119219, Rapamycin]	–	–	–	0	27.40	−57.86	−44.01	68.93	72.30	–	–	–
O[C@H]1[C@H]2[C@H](O)CCCN2C[C@H]1O [UM0119223, Swainsonine]	–	–	–	0	30.00	−43.81	−22.20	79.57	81.90	–	–	–
COc1ccc(-c2oc3cc(O)cc(O)c3c(=O)c2O)cc1 [UM0119298, Kaempferide]	–	105.80	114.93	1	42.31	25.55	75.15	98.71	82.40	–	–	–
COc1c(O)cc2oc(-c3ccc(O)c(O)c3)cc(=O)c2c1O [UM0119305, 6-Methoxyluteolin]	–	–	–	0	31.39	−2.77	40.01	88.83	83.60	–	–	–
COc1cc(-c2oc3cc(O)cc(O)c3c(=O)c2O)ccc1O [UM0119319, Isorhamnetine]	–	–	–	0	37.41	28.67	62.94	74.28	–	–	–	–
C[C@@H]1Cc2c(Cl)cc(C(=O)N[C@@H](Cc3ccccc3)C(=O)O)c(O)c2C(=O)O1 [UM0119328, Ochratoxin A]	–	–	–	0	14.82	1.28	34.37	52.56	82.10	–	–	–
C[C@]12CC[C@H](O)C[C@H]1CC[C@@H]1[C@@H]2CC[C@]2(C)[C@@H](C3=CC(=O)OC3)[C@@H](O)C[C@]12O [UM0119342, Gitoxigenin]	–	–	–	0	48.71	−44.85	−40.00	62.33	77.10	–	–	–
COc1ccc(-c2cc(=O)c3c(O)cc(O)cc3o2)cc1O [UM0119400, Diosmetine]	–	–	–	0	31.48	−19.72	20.75	97.56	–	–	–	–
CNC(=O)c1cc2c(cn1)[nH]c1ccccc12 [UM0119840, N-Methyl-beta-carboline-3-carboxamide]	–	172.95	252.10	1	31.60	37.57	85.11	76.94	86.20	highest	significant impact	56
O=c1c2ccccc2oc2ccccc12 [UM0120986, Xanthone]	–	–	–	0	34.82	28.81	86.26	94.85	81.40	–	–	–
COc1ccc(-c2coc3c(O)c(OC)ccc3c2=O)cc1 [UM0121179, Retusin 7-Methylether]	–	218.84	199.22	1	58.87	59.80	125.38	124.10	82.10	–	–	–
N[C@@H]1C[C@H]1c1ccccc1.N[C@H]1C[C@@H]1c1ccccc1.O=S(=O)(O)O [UM0121497, Tranylcypromine sulfate]	–	–	–	–	20.22	−15.83	19.65	70.66	76.50	–	–	–
CO[C@@H]1[C@H](OC(=O)/C=C/C=C/C=C/C=C/C(=O)O)CC[C@]2(CO2)[C@H]1[C@@]1(C)O[C@@H]1CC=C(C)C [UM0121512, Fumagillin]	–	–	–	–	31.22	−54.59	−46.09	55.51	78.60	–	–	–
Benzalkonium chloride [UM0120664]	–	–	–	0	45.92	−73.74	−57.89	133.07	–	–	–	–
Verteporfin [UM0119121]	–	–	–	–	15.38	33.14	58.17	37.29	–	–	–	–
